Source: ChEMBL document CHEMBL1136365, “Hepatoprotective pyrrole derivatives of Lycium chinense fruits” (2003)

How the values were obtained:
Type in all cases: functional, Hepatocyte
Rattus norvegicus [1] = species on record: Rattus norvegicus; experiment: Tested for release of glutamic pyruvic transaminase (GPT) from CCl4 induced toxicity in primary cultures of rat hepatocytes at 0.01 uM concentration
Rattus norvegicus [2] = species on record: Rattus norvegicus; experiment: Tested for release of glutamic pyruvic transaminase (GPT) from CCl4 induced toxicity in primary cultures of rat hepatocytes at 0.1 uM concentration
Rattus norvegicus [3] = species on record: Rattus norvegicus; experiment: Tested for release of glutamic pyruvic transaminase (GPT) from CCl4 induced toxicity in primary cultures of rat hepatocytes at 1 uM concentration
Rattus norvegicus [4] = species on record: Rattus norvegicus; experiment: Tested for release of glutamic pyruvic transaminase (GPT) from CCl4 induced toxicity in primary cultures of rat hepatocytes at 10 uM concentration
Rattus norvegicus [5] = species on record: Rattus norvegicus; experiment: Tested for release of glutamic pyruvic transaminase (GPT) from CCl4 induced toxicity in primary cultures of rat hepatocytes at 50 uM concentration

Compound	Relative protection (Rattus norvegicus [1]) [%]	Relative protection (Rattus norvegicus [2]) [%]	Relative protection (Rattus norvegicus [3]) [%]	Relative protection (Rattus norvegicus [4]) [%]	Relative protection (Rattus norvegicus [5]) [%]
O=Cc1ccc(CO)n1CCCC(=O)O	12.4	64.4	39.7	3.2	–
COC(=O)CCCn1c(C=O)ccc1CO	5.1	30.8	40.8	20.8	–
COCc1ccc(C=O)n1CCCC(=O)OC	8.9	38.5	13.2	15.9	–
COCc1ccc(C=O)n1CCCC(=O)O	36	65.8	29.2	14.2	–
COc1cc([C@H]2Oc3cc([C@H]4Oc5cc(O)cc(O)c5C(=O)[C@@H]4O)ccc3O[C@@H]2CO)ccc1O [SILIBININ]	–	–	14.6	28.8	45.5
